Numbers after ± are expanded uncertainties.
Assay: wn = mass fraction of the nth substance listed
Conditions: Liquid; for mass density: Vibrating tube method; for viscosity: Falling or rolling sphere viscometry

c1ccc2c(c1)CCCC2 [1,2,3,4-tetrahydronaphthalene] + CCCCCCCCCCCC
Conditions | mass density [kg/m3] | viscosity [mPa·s]
293.15 K, 100 kPa, w2 = 0.5 | 844.4 ± 1 | –
293.15 K, 2000 kPa, w2 = 0.5 | 845.7 ± 1 | –
293.15 K, 4000 kPa, w2 = 0.5 | 846.8 ± 1 | –
293.15 K, 6000 kPa, w2 = 0.5 | 848 ± 1 | –
293.15 K, 8000 kPa, w2 = 0.5 | 849.5 ± 1 | –
293.15 K, 10000 kPa, w2 = 0.5 | 850.8 ± 1 | –
293.15 K, 12000 kPa, w2 = 0.5 | 851.9 ± 1 | –
293.15 K, 14000 kPa, w2 = 0.5 | 853.1 ± 1 | –
293.15 K, 16000 kPa, w2 = 0.5 | 854.2 ± 1 | –
293.15 K, 18000 kPa, w2 = 0.5 | 855.4 ± 1 | –
293.15 K, 20000 kPa, w2 = 0.5 | 856.6 ± 1.1 | –
295.65 K, 100 kPa, w2 = 0.5 | 842.4 ± 1 | –
295.65 K, 2000 kPa, w2 = 0.5 | 843.6 ± 1 | –
295.65 K, 4000 kPa, w2 = 0.5 | 844.9 ± 1 | –
295.65 K, 6000 kPa, w2 = 0.5 | 846 ± 1 | –
295.65 K, 8000 kPa, w2 = 0.5 | 847.4 ± 1 | –
295.65 K, 10000 kPa, w2 = 0.5 | 848.6 ± 1 | –
295.65 K, 12000 kPa, w2 = 0.5 | 849.8 ± 1 | –
295.65 K, 14000 kPa, w2 = 0.5 | 851 ± 1 | –
295.65 K, 16000 kPa, w2 = 0.5 | 852.1 ± 1 | –
295.65 K, 18000 kPa, w2 = 0.5 | 853.3 ± 1 | –
295.65 K, 20000 kPa, w2 = 0.5 | 854.4 ± 1.1 | –
298.15 K, 100 kPa, w1 = 0.48 | 835.7 ± 1 | –
298.15 K, 100 kPa, w1 = 0.49 | 838.4 ± 1 | –
298.15 K, 100 kPa, w1 = 0.5 | 840.7 ± 1 | –
298.15 K, 100 kPa, w1 = 0.51 | 842.7 ± 1 | –
298.15 K, 100 kPa, w1 = 0.52 | 844.8 ± 1 | –
298.15 K, 100 kPa, w2 = 0.5 | 840.7 ± 1 | 1.46 ± 0.06
298.15 K, 2000 kPa, w1 = 0.48 | 836.9 ± 1 | –
298.15 K, 2000 kPa, w1 = 0.49 | 839.7 ± 1 | –
298.15 K, 2000 kPa, w1 = 0.5 | 842 ± 1 | –
298.15 K, 2000 kPa, w1 = 0.51 | 844 ± 1 | –
298.15 K, 2000 kPa, w1 = 0.52 | 846.1 ± 1 | –
298.15 K, 2000 kPa, w2 = 0.5 | 842 ± 1 | –
298.15 K, 4000 kPa, w1 = 0.48 | 838.3 ± 1 | –
298.15 K, 4000 kPa, w1 = 0.49 | 841 ± 1 | –
298.15 K, 4000 kPa, w1 = 0.5 | 843.4 ± 1 | –
298.15 K, 4000 kPa, w1 = 0.51 | 845.3 ± 1 | –
298.15 K, 4000 kPa, w1 = 0.52 | 847.5 ± 1 | –
298.15 K, 4000 kPa, w2 = 0.5 | 843.4 ± 1 | 1.53 ± 0.06
298.15 K, 6000 kPa, w1 = 0.48 | 839.6 ± 1 | –
298.15 K, 6000 kPa, w1 = 0.49 | 842.2 ± 1 | –
298.15 K, 6000 kPa, w1 = 0.5 | 844.7 ± 1 | –
298.15 K, 6000 kPa, w1 = 0.51 | 846.5 ± 1 | –
298.15 K, 6000 kPa, w1 = 0.52 | 848.7 ± 1 | –
298.15 K, 6000 kPa, w2 = 0.5 | 844.7 ± 1 | –
298.15 K, 8000 kPa, w1 = 0.48 | 840.9 ± 1 | –
298.15 K, 8000 kPa, w1 = 0.49 | 843.5 ± 1 | –
298.15 K, 8000 kPa, w1 = 0.5 | 845.9 ± 1 | –
298.15 K, 8000 kPa, w1 = 0.51 | 847.8 ± 1 | –
298.15 K, 8000 kPa, w1 = 0.52 | 849.9 ± 1 | –
298.15 K, 8000 kPa, w2 = 0.5 | 845.9 ± 1 | –
298.15 K, 10000 kPa, w1 = 0.48 | 842.1 ± 1 | –
298.15 K, 10000 kPa, w1 = 0.49 | 844.7 ± 1 | –
298.15 K, 10000 kPa, w1 = 0.5 | 847.1 ± 1 | –
298.15 K, 10000 kPa, w1 = 0.51 | 848.8 ± 1 | –
298.15 K, 10000 kPa, w1 = 0.52 | 851.1 ± 1 | –
298.15 K, 10000 kPa, w2 = 0.5 | 847.1 ± 1 | 1.64 ± 0.07
298.15 K, 12000 kPa, w1 = 0.48 | 843.3 ± 1 | –
298.15 K, 12000 kPa, w1 = 0.49 | 845.9 ± 1 | –
298.15 K, 12000 kPa, w1 = 0.5 | 848.4 ± 1 | –
298.15 K, 12000 kPa, w1 = 0.51 | 850.3 ± 1 | –
298.15 K, 12000 kPa, w1 = 0.52 | 852.2 ± 1 | –
298.15 K, 12000 kPa, w2 = 0.5 | 848.4 ± 1 | –
298.15 K, 14000 kPa, w1 = 0.48 | 844.6 ± 1.1 | –
298.15 K, 14000 kPa, w1 = 0.49 | 847.1 ± 1 | –
298.15 K, 14000 kPa, w1 = 0.5 | 849.5 ± 1 | –
298.15 K, 14000 kPa, w1 = 0.51 | 851.5 ± 1 | –
298.15 K, 14000 kPa, w1 = 0.52 | 853.5 ± 1 | –
298.15 K, 14000 kPa, w2 = 0.5 | 849.5 ± 1 | –
298.15 K, 16000 kPa, w1 = 0.48 | 845.7 ± 1.1 | –
298.15 K, 16000 kPa, w1 = 0.49 | 848.3 ± 1.1 | –
298.15 K, 16000 kPa, w1 = 0.5 | 850.7 ± 1.1 | –
298.15 K, 16000 kPa, w1 = 0.51 | 852.7 ± 1 | –
298.15 K, 16000 kPa, w1 = 0.52 | 854.6 ± 1 | –
298.15 K, 16000 kPa, w2 = 0.5 | 850.7 ± 1 | –
298.15 K, 18000 kPa, w1 = 0.48 | 846.9 ± 1.1 | –
298.15 K, 18000 kPa, w1 = 0.49 | 849.3 ± 1.1 | –
298.15 K, 18000 kPa, w1 = 0.5 | 851.9 ± 1.1 | –
298.15 K, 18000 kPa, w1 = 0.51 | 853.8 ± 1.1 | –
298.15 K, 18000 kPa, w1 = 0.52 | 855.7 ± 1.1 | –
298.15 K, 18000 kPa, w2 = 0.5 | 851.9 ± 1 | –
298.15 K, 20000 kPa, w1 = 0.48 | 848.1 ± 1.1 | –
298.15 K, 20000 kPa, w1 = 0.49 | 850.6 ± 1.1 | –
298.15 K, 20000 kPa, w1 = 0.5 | 853 ± 1.1 | –
298.15 K, 20000 kPa, w1 = 0.51 | 855 ± 1.1 | –
298.15 K, 20000 kPa, w1 = 0.52 | 857 ± 1.1 | –
298.15 K, 20000 kPa, w2 = 0.5 | 853 ± 1.1 | –
300.65 K, 100 kPa, w2 = 0.5 | 838.8 ± 1 | –
300.65 K, 2000 kPa, w2 = 0.5 | 840 ± 1 | –
300.65 K, 4000 kPa, w2 = 0.5 | 841.3 ± 1 | –
300.65 K, 6000 kPa, w2 = 0.5 | 842.5 ± 1 | –
300.65 K, 8000 kPa, w2 = 0.5 | 843.8 ± 1 | –
300.65 K, 10000 kPa, w2 = 0.5 | 845 ± 1 | –
300.65 K, 12000 kPa, w2 = 0.5 | 846.3 ± 1 | –
300.65 K, 14000 kPa, w2 = 0.5 | 847.5 ± 1 | –
300.65 K, 16000 kPa, w2 = 0.5 | 848.8 ± 1 | –
300.65 K, 18000 kPa, w2 = 0.5 | 849.9 ± 1 | –
300.65 K, 20000 kPa, w2 = 0.5 | 851 ± 1.1 | –
303.15 K, 100 kPa, w2 = 0.5 | 837.3 ± 1 | –
303.15 K, 2000 kPa, w2 = 0.5 | 838.5 ± 1 | –
303.15 K, 4000 kPa, w2 = 0.5 | 839.9 ± 1 | –
303.15 K, 6000 kPa, w2 = 0.5 | 841.1 ± 1 | –
303.15 K, 8000 kPa, w2 = 0.5 | 842.4 ± 1 | –
303.15 K, 10000 kPa, w2 = 0.5 | 843.6 ± 1 | –
303.15 K, 12000 kPa, w2 = 0.5 | 844.9 ± 1 | –
303.15 K, 14000 kPa, w2 = 0.5 | 846.1 ± 1 | –
303.15 K, 16000 kPa, w2 = 0.5 | 847.5 ± 1 | –
303.15 K, 18000 kPa, w2 = 0.5 | 848.7 ± 1 | –
303.15 K, 20000 kPa, w2 = 0.5 | 849.8 ± 1.1 | –

From the NIST ThermoML archive (doi:10.1021/je8008073)
